The text below walks through data of patent US20250122207A1, “AP2 ASSOCIATED KINASE 1 INHIBITORS AND USES THEREOF” (Satellos Bioscience Inc., priority 2023, published 2025).

Read-outs that look alike come from different tables or passages of the source.

The target of test [1] is T1, AAK1 (amino acids T27-A365) (Homo sapiens, UniProt Q2M2I8).
T1 construct: against AAK1 (amino acids T27-A365); 6His (N, cleaved yes)
Nature of the test: AAK1 pSENs assay. The following applies: class symbols; read-out: AAK1 pSENs: EIC50. The format is biochemical. Summed up: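 Biotinylated, tag-free AAK1 T27-A365 expressed in E. coli was held at 20 nM in enzyme solution (HEPES pH 7.5, 10 mM MgCl2, DTT, EGTA, Brij35, BSA) and preincubated with compound for 15 min at 25 °C. The reaction was started with an equal volume of substrate solution containing 30 uM AQT0759 peptide and 70 uM ATP. IC50 determined.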

The next test concerns the target AAK1 (Homo sapiens, UniProt Q2M2I8). Nature of the test: pAP2M1 cell-based assay (in-cell Western). The following applies: Hela cells co-transfected with AP2M1 and AAK1, 3 hr treatment; class symbols; read-out: AAK1 In-cell Western: IC50. An excerpt: pAP2M1 Cell-Based Assay (in-Cell Western):
The plate was read on Licor Odyssey CLx imaging system (LICOR) to acquire fluorescence intensity at 700 channel and 800 channel.
Data analysis: Fluorescence intensity at 700 channel served as internal standard and 800 channel were normalized with 700 channel.

Test [2] concerns the target T2, GAK (amino acids Q25-N335) (Homo sapiens, UniProt O14976).
T2 construct: against GAK (amino acids Q25-N335); 6His (N, cleaved yes)
T2 sequence (O14976 25-335): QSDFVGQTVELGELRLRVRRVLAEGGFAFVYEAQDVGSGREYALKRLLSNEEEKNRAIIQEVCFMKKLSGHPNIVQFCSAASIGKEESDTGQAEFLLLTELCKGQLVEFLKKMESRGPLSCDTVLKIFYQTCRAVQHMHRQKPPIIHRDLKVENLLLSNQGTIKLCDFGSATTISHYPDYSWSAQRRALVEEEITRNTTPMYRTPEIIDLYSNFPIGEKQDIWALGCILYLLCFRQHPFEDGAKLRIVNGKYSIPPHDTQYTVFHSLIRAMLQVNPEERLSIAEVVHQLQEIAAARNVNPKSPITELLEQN
Nature of the test: GAK pSENs assay. The test is classed as biochemical. As for the experimental part: The recombinant proteins were independently expressed in Escherichia coli BL21(DE3) cells cultured in Luria-Bertani (LB) medium until OD600 reached 0.6-0.8, then cooled to 15° C. and supplemented with 0.5 mM isopropyl 1-thio-D-galactopyranoside (IPTG) induce protein expression 16 h. Cells were harvested and resuspended in lysis buffer (50 mM HEPES pH 7.5, 500 mM NaCl, 5 mM imidazole, 5% glycerol, 0.5 mM Tris (2-carboxyethyl) phosphine (TCEP), cOmplete Protease Inhibitor Tablet (Roche)) and lysed by microfludics high pressure homogenizer (UH-06, Union-Biotech). Proteins were purified using […] chromatography (His FF column, Bestchrom) and eluted stepwise in binding buffer with 20-300 mM imidazole. Removal of the hexahistidine tag was performed at 4° C. overnight using recombinant TEV protease and reacted with BirA to obtain the corresponding biotinylated-AAK1, BIKE or GAK proteins. Further separated in the reverse Strep column (Strep-Tactin® XT, IBA). The Biotin elution sample was collected containing untagged biotinylated protein was then purified by Ion-exchange chromatography (Mono Q 10/100 GL, Cytiva) and Size-exclusion chromatography (HiLoad 16/600 Superdex 200 pg, Cytiva). The pure protein was stored in a storage buffer 50 mM HEPES (pH 7.5), 300 mM NaCl, 5% glycerol at −80° C. Protein were characterized by SDS-PAGE, LC-MS and aSEC.
This example describes one illustrative method for determining the IC50 of the compounds of the present invention against GAK (amino acids Q25-N335).

Test [3] concerns the target T3, BIKE (amino acids S38-E345) (K320A, K321A) (Homo sapiens, UniProt Q9NSY1, K320A/K321A).
T3 construct: against BIKE (amino acids S38-E345) (K320A, K321A); 6His (N, cleaved yes)
Nature of the test: BIKE pSENs assay. The test is classed as biochemical. Put shortly:
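E. coli-expressed, biotinylated, tag-free BIKE at 20 nM in HEPES pH 7.5 buffer with 10 mM MgCl2 preincubated with compound 15 min at 25° C. Reaction started with 30 uM AQT0759 sensor peptide and 40 uM ATP (concentrations before 1:1 mixing).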

Setting [4] is: class symbols, read-out: GAK pSENs:IC50.
The mark [5] stands for this setting: class symbols, read-out: BIKE pSENs: IC50.

T1 sequence (Q2M2I8 27-365): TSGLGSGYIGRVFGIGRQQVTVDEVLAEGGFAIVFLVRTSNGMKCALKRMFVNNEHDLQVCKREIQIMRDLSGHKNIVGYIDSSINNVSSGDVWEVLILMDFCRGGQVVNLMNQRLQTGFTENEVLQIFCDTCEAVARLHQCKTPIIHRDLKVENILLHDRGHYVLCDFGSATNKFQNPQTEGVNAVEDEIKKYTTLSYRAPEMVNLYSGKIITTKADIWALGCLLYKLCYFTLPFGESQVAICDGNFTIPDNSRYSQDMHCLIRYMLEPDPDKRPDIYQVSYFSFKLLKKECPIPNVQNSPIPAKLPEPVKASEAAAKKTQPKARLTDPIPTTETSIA
Sequence of AAK1 (Q2M2I8 whole entry): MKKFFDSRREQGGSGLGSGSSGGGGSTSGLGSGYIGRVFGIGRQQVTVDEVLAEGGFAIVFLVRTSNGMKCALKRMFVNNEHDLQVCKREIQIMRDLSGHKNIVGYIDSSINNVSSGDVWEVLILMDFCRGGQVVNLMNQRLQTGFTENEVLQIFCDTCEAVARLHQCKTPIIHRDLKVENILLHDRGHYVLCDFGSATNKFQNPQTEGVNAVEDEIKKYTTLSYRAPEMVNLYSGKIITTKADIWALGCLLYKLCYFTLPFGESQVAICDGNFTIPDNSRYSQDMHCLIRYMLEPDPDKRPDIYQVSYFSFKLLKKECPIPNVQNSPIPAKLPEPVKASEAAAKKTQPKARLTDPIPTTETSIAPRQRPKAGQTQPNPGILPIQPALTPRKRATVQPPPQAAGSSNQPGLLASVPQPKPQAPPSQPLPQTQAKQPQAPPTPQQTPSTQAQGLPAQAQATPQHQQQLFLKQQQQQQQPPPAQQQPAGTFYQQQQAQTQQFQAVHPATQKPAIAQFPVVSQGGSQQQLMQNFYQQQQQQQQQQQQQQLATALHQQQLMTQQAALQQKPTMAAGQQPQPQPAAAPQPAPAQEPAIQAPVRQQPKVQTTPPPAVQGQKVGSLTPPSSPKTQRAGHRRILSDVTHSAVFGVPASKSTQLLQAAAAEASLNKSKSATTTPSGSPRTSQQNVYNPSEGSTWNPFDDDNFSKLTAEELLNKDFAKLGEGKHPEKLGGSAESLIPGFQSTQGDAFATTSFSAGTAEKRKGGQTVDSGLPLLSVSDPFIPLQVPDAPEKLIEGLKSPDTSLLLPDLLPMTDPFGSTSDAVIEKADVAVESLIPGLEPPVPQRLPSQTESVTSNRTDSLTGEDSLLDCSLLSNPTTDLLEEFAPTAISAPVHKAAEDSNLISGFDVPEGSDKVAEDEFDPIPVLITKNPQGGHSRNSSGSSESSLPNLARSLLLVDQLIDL
T3 sequence (Q9NSY1 38-345 K320A/K321A): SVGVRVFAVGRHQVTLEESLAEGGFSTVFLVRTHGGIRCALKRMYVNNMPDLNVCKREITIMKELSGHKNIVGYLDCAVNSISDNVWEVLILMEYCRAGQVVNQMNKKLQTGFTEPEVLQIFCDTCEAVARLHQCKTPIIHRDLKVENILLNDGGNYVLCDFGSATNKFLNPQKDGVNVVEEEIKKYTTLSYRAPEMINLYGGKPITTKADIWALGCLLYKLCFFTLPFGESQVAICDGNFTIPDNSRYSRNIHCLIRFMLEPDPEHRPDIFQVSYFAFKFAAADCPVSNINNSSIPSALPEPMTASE

As to `O=C(O[C@H]1CO[C@H]2OCC[C@H]21)N1CCN(c2ccn3ncc(-c4cnccn4)c3n2)CC1` [Compound I-66, [(3aS,4R,6aR)-2,3,3a,4,5,6a-hexahydrofuro[2,3-b]furan-4-yl]-4-(3-pyrazin-2-ylpyrazolo[1,5-a]pyrimidin-5-yl)piperazine-1-carboxylate], the IC50 is 151 to 500 nM in test [1], 501 to 1500 nM at AAK1 and 501 to 1500 nM in test [2] (setting [4]).

Regarding `CN1C[C@H](OC(=O)N2CCN(c3ccn4ncc(-c5cccnc5OC5CC5)c4n3)CC2)CC1=O` [Compound I-94], the IC50 in test [1] is 1 to 50 nM; on AAK1, 501 to 1500 nM; in test [3], 151 to 500 nM; in test [2] it was over 1500 nM.

On to `CN(CCNc1ccn2ncc(-c3cccnc3OC3CC3)c2n1)C(=O)OC(C)(C)C` [Compound I-12, tert-butyl N-[2-[[3-[2-(Cyclopropoxy)-3-pyridyl]pyrazolo[1,5-a]pyrimidin-5-yl]amino]ethyl]-N-methyl-carbamate], for which the IC50 was in the range of 1 to 50 nM in test [1], 151 to 500 nM at AAK1, 51 to 150 nM in test [3] (setting [5]) and 501 to 1500 nM in test [2] (setting [4]).

Take `CC1(OC(=O)N2CCN(c3ccn4ncc(-c5cccnc5OC5CC5)c4n3)CC2)CCNC1` (stereo not drawn) [Compound I-13-5, (3-Methylpyrrolidin-3-yl) 4-[3-[2-(cyclopropoxy)-3-pyridyl]pyrazolo[1,5-a]pyrimidin-5-yl]piperazine-1-carboxylate]: the IC50 in test [3] (setting [5]) fell in the range of 51 to 150 nM; in test [2] (setting [4]) it was 151 to 500 nM.

Regarding `C#CC1(OC(=O)N2CCN(c3ccn4ncc(-c5cccnc5OC)c4n3)CC2)CCNC1` (stereo not drawn) [Compound I-9, (3-Ethynylpyrrolidin-3-yl) 4-[3-(2-methoxy-3-pyridyl)pyrazolo[1,5-a]pyrimidin-5-yl]piperazine-1-carboxylate], the IC50 in test [1] was in the range of 1 to 50 nM; at AAK1, 51 to 150 nM; in test [3] (setting [5]) it was 1 to 50 nM; in test [2] (setting [4]), 151 to 500 nM.

As for `CC(C)(C)OC(=O)NCCNc1nc2c(-c3cccnc3OC3CC3)cnn2cc1F` [Compound I-124, tert-butyl N-[2-[[3-[2-(cyclopropoxy)-3-pyridyl]-6-fluoro-pyrazolo[1,5-a]pyrimidin-5-yl]amino]ethyl]carbamate], the IC50 is 51 to 150 nM in test [1], 501 to 1500 nM on AAK1, 501 to 1500 nM in test [3] (setting [5]) and 501 to 1500 nM in test [2] (setting [4]).

As for `C[C@@]1(OC(=O)N2CCN(c3ccn4ncc(-c5cccnc5OC5CC5)c4n3)CC2)CCNC1` [Compound I-14, [(3R)-3-Methylpyrrolidin-3-yl]-4-[3-[2-(cyclopropoxy)-3-pyridyl]pyrazolo[1,5-a]pyrimidin-5-yl]piperazine-1-carboxylate], the IC50 is 1 to 50 nM in test [1], 151 to 500 nM at AAK1, 151 to 500 nM in test [3] (setting [5]) and 501 to 1500 nM in test [2] (setting [4]).

On to `CC1(OC(=O)N2CCN(c3ccn4ncc(-c5ccc(C(N)=O)cc5)c4n3)CC2)COC1` [Compound I-3, (3-methyloxetan-3-yl)-4-[3-(4-carbamoylphenyl)pyrazolo[1,5-a]pyrimidin-5-yl]piperazine-1-carboxylate], for which the IC50 in test [1] is 1 to 50 nM; on AAK1, 501 to 1500 nM; in test [3] (setting [5]) it was 51 to 150 nM; in test [2] (setting [4]) it was 501 to 1500 nM.

With `CC(C)(C)OC(=O)N1CCN(c2ccn3ncc(Cl)c3n2)CC1` [Compound I-100, tert-butyl 4-(3-chloropyrazolo[1,5-a]pyrimidin-5-yl)piperazine-1-carboxylate], the IC50 in test [1] was 501 to 1500 nM; on AAK1 it was over 1500 nM; in test [3] (setting [5]) it was over 1500 nM; in test [2] (setting [4]) it was over 1500 nM.

As to `CC(C)(C)OC(=O)N1CCN(c2ccn3ncc(-c4cccnc4O)c3n2)CC1` [Compound I-102, tert-butyl 4-[3-(2-hydroxy-3-pyridyl)pyrazolo[1,5-a]pyrimidin-5-yl]piperazine-1-carboxylate], the IC50 is 1 to 50 nM in test [1], 501 to 1500 nM at AAK1, 51 to 150 nM in test [3] (setting [5]) and over 1500 nM in test [2] (setting [4]).

Turning to `CC1(OC(=O)N2CCN(c3ccn4ncc(-c5cccc(C(N)=O)c5)c4n3)CC2)COC1` [Compound I-4, (3-methyloxetan-3-yl)-4-[3-(3-carbamoylphenyl)pyrazolo[1,5-a]pyrimidin-5-yl]piperazine-1-carboxylate], the IC50 in test [1] was in the range of 51 to 150 nM; on AAK1, 501 to 1500 nM; in test [3] (setting [5]), 501 to 1500 nM; in test [2] (setting [4]) it was 501 to 1500 nM.

In the case of `CN1C[C@@H](OC(=O)N2CCN(c3ccn4ncc(-c5cccnc5O)c4n3)CC2)CC1=O` [Compound I-98, [(3S)-1-methyl-5-oxo-pyrrolidin-3-yl]-4-[3-(2-hydroxy-3-pyridyl)pyrazolo[1,5-a]pyrimidin-5-yl]piperazine-1-carboxylate], the IC50 in test [1] was 151 to 500 nM; at AAK1 it was over 1500 nM; in test [3] (setting [5]), 501 to 1500 nM; in test [2] (setting [4]) it was over 1500 nM.

Regarding `CN1C[C@@H](OC(=O)N2CCN(c3ccn4nccc4n3)CC2)CC1=O` [Compound I-97, [(3S)-1-methyl-5-oxo-pyrrolidin-3-yl]-4-pyrazolo[1,5-a]pyrimidin-5-ylpiperazine-1-carboxylate], the IC50 (in test [1]; at AAK1; in test [3] (setting [5]); in test [2] (setting [4])) was over 1500 nM in each case.

Consider `O=C1C[C@H](OC(=O)N2CCN(c3ccn4ncc(-c5cccnc5NC5CCC5)c4n3)CC2)CN1` [Compound I-46, [(3S)-5-oxopyrrolidin-3-yl]4-[3-[2-(cyclobutylamino)-3-pyridyl]pyrazolo [1,5-a]pyrimidin-5-yl]piperazine-1-carboxylate], for which the IC50 was over 1500 nM in test [1], over 1500 nM on AAK1 and 501 to 1500 nM in test [2] (setting [4]).

Take `C[C@@]1(OC(=O)N[C@H]2CCN(c3ccn4ncc(-c5cccnc5OC5CC5)c4n3)C2)CCNC1` [Compound I-57, (R)-3-methylpyrrolidin-3-yl ((S)-1-(3-(2-cyclopropoxypyridin-3-yl)pyrazolo[1,5-a]pyrimidin-5-yl)pyrrolidin-3-yl)carbamate]: the IC50 was 51 to 150 nM in test [1], over 1500 nM on AAK1 and 501 to 1500 nM in test [2] (setting [4]).

In the case of `[2H]C([2H])([2H])N1C[C@@H](OC(=O)N2CCN(c3nc4c(-c5cc(OC)cnc5OC5CC5)cnn4cc3F)CC2)CC1=O` [Compound I-117, [(3S)-5-oxo-1-(trideuteriomethyl)pyrrolidin-3-yl]4-[3-[2-(cyclopropoxy)-5-methoxy-3-pyridyl]-6-fluoro-pyrazolo[1,5-a]pyrimidin-5-yl]piperazine-1-carboxylate], the IC50 in test [1] was in the range of 1 to 50 nM; in test [3] (setting [5]), 1 to 50 nM; in test [2] (setting [4]), 501 to 1500 nM.

As to `CC1(OC(=O)N2CCN(c3ccn4ncc(-c5cccnc5OCC5COC5)c4n3)CC2)COC1` [Compound I-20], the IC50 in test [1] is 151 to 500 nM; on AAK1, over 1500 nM; in test [2] (setting [4]), 501 to 1500 nM.

As for `COc1ncccc1-c1cnn2ccc(N3CCN(C(=O)OC(C)C)CC3)nc12` [LP-935509], the IC50 in test [3] was 33.3 nM; in test [2], 720 nM.

With `CC(C)Oc1ncccc1-c1cnn2ccc(N3CCN(C(=O)O[C@@]4(C)CCNC4)CC3)nc12` [Compound I-21, [(3S)-3-Methylpyrrolidin-3-yl]4-[3-(2-isopropoxy-3-pyridyl)pyrazolo[1,5-a]pyrimidin-5-yl]piperazine-1-carboxylate], the IC50 in test [1] is 51 to 150 nM; on AAK1, over 1500 nM; in test [2] (setting [4]), 501 to 1500 nM.
